Results as given in patent US20240101972A1, “METHODS OF […]-[…] PRODUCTION” (priority 2021, published 2024).
Like-named read-outs stand apart in the source and are kept apart here.

Experiments:
[1] = test system: Rep with C-terminal degron under the control of TRE3G promoter; assay: AAV titer (qPCR) of Rep with C-terminal degron under TRE3G promoter control; type: cell-based
Description: (§1) PEI pro transfection reagent (Polyplus), OptiMEM (Gibco) were used. […] These cell pellets were kept at −80 freezer.
(§2) Frozen harvested cells were thawed and sonicated. […] Then DNaseI treatment was performed for 15 minutes.
(§3) In this study a Tet response element containing promoter (TRE3G) is cloned in front of the Rep gene as shown at FIG. 18A. This promoter can be activated in the presence of Tet proteins and doxycycline induction. Rep with C-terminal Degron under Tet Response Element promoter control is shown to be functional for AAV production regulation. Large Rep is under the control of Tet promoter and small Rep expression is provided by p19 promoter (Samples 1-5). […] Shield1 can upregulate small Rep expression (Sample 1 vs Sample 2) and large Rep expression (Sample 3 vs Sample 4). A separate plasmid is used for supplying Tet-On 3G transactivator protein where transactivator protein expression is under the control of ubiquitous CMV promoter (Samples 1-4). The amino acid sequence of the transactivator protein is: […]

[2] = test system: Rep with C-terminal FKBP degron; assay: rAAV production from Rep-degron constructs, read out by Huh7 transduction and luciferase; type: cell-based, human
Source text: Various constructs were designed for the development of mechanism for controllable Rep accumulation and higher rAAV production. Rep transgene was tagged at N-terminus or C-terminus with a destabilization domain (degron) to confer instability and target the translated Rep protein product to proteasome for degradation. The Rep protein degradation can be reversed by addition of the Shield1 ligand. The degron was modified from a human gene encoding FK506-binding protein 12 (“FKBP12”). It was previously shown that F36V modifications of the protein improves its specificity to Shield1 over FK506 (Clackson et al, PNAS 1998). […] The amino acid sequence of the degron that was used in the present example, referred to herein as “FKBP”, having a F36V and an L107P mutation, was:
Production of rAAV: Recombinant AAV were produced by transfection of human embryonic kidney (HEK293) cells grown in 6-well plates. The cells at 70-90% confluency were transfected with 3 μg of total DNA using jetOPTIMUS® DNA (PolyPlus)transfection reagent. The positive control rAAV produced with LK03 Rep/Cap plasmid were produced via triple transfection method. The plasmids were added in 1:1:1 ratio (1 helper: 1 ITR plasmid: 1 rep/cap plasmids). […]
Transduction of cells: Huh7 cells were transduced with equivalent volume of cell lysate or the cell media containing the AAV vectors. […] Transduction efficiency was assessed in biological duplicates or triplicates. Culture media was replaced the following day, and samples were analyzed for transgene expression 48-72 hours after transduction. For detection of Luciferase expression, Huh7 cells were lysed in passive lysis buffer (Promega) and each biological sample was divided and plated to four wells of 96-well luminescence assay plate. Renilla Luciferase levels were determined using the Renilla Luciferase Assay Kit (Promega) and analyzed in a microplate luminometer (Spectramax) fitted with injectors.
Shield1 was added to selected wells (FIG. 2). […] The Huh7 cells were then lysed and luciferase activity was measured for the detection of transgene activity.

[3] = test system: FKBP degron tagged Rep proteins; assay: Western blot of FKBP degron tagged Rep proteins; type: cell-based, human
Description: as §1
(§4) Protein concentrations were measured with BCA kit (Pierce). […] Membranes were scanned with Odyssey (Li-Cor).
(§5) As depicted in FIGS. 12A-12D “RHM4-1” and “RHM4-1v2” are the plasmids that express both Rep proteins with no degrons and RHM4-1 Cap. In contrast, “p40Cap plasmid” only expresses RHM4-1 Capsid, while “pAAV2 Rep plasmid” expresses Rep proteins from AAV2. The ITR plasmid used in these studies has Gaussia Luciferase as transgene.

[4] = test system: FKBP degron tagged Rep proteins; assay: AAV titer (qPCR) with FKBP degron tagged Rep; type: cell-based, human
Description: as §1, §2, §5

[5] = target: T1, Rep with C-terminal degron under the control of TRE3G promoter (Homo sapiens, UniProt P62942, F37V); assay: Western blot of Rep with C-terminal degron under TRE3G promoter control; type: cell-based
T1 construct: AAV Rep protein (fusion partner); expressed in transfected cells; host or cells: Expi293
Description: as §1, §4, §3

[6] = test system: ecDHFR degron tagged Rep proteins
Description: Expi293 cells were seeded 1.4E6 viable cells/mL in Expi293 media the day before transfection. Transfection was performed when the viable cells were between 2E6-3E6 cells/mL. PEI pro transfection reagent (Polyplus), OptiMEM (Gibco) were used. PEI:DNA ratio was 2 and 0.6 μg DNA per million cells was used. Triple transfections were performed with RHM4-1 Rep Cap, Helper and Gaussia luciferase plasmids. Split Rep and Cap plasmids were used in a ratio of 1:4 (Rep:Cap). In some cases split Rep Cap plasmids and TIR1 or CMV-Tet were used in a ratio of 1:3:1 (Rep:Cap:TIR1 or CMV-Tet). 1.5 mM SAHA was added after the addition of DNA-PEI complexes. In some cases next day Shield1 or TMP or Auxin and/or Doxycycline was added. For Doxycycline treated samples another treatment of Dox was performed 24 hr later than first treatment. Cells harvested at 4,8,24 hr post-treatment and 44 hr or 68 hr or 72 hr post-transfection; centrifuged and washed with cold PBS. These cell pellets were kept at −80 freezer.
Cell pellets were lysed with RIPA buffer (Pierce) including protease and phosphatase inhibitors and EDTA on ice for 30 minutes. Lysates were centrifuged max speed for 15 minutes and supernatant was transferred to a new Eppendorf tube and used for Western. Protein concentrations were measured with BCA kit (Pierce). 30 lag protein per lane loaded for SDS-PAGE gels. These gels were transferred to either PVDF or Nitrocellulose membrane. Membranes were blocked with blocking buffer (Li-Cor) for 30 minutes at room temperature. Anti-AAV Rep clone 303.9 (ARP, cat #03-61069) purified mouse monoclonal antibody was diluted 500 times in either blocking buffer (Li-Cor) or antibody diluent (Li-Cor). Membranes were incubated overnight in cold room either rocking or non-rocking. Next day membranes were washed 3 times 10 minutes each with 1×TBST buffer (Invitrogen). Goat anti-mouse Alexa Flour 680 secondary antibody was diluted 1000 times in either blocking buffer (Li-Cor) or antibody diluent (Li-Cor). Membranes were incubated at room temperature rocking for 45 minutes. […]

[7] = test system: ecDHFR degron tagged Rep proteins; remark: listed apart in the source
Description: Expi293 cells were seeded 1.4E6 viable cells/mL in Expi293 media the day before transfection. Transfection was performed when the viable cells were between 2E6-3E6 cells/mL. PEI pro transfection reagent (Polyplus), OptiMEM (Gibco) were used. PEI:DNA ratio was 2 and 0.6 μg DNA per million cells was used. Triple transfections were performed with RHM4-1 Rep Cap, Helper and Gaussia luciferase plasmids. Split Rep and Cap plasmids were used in a ratio of 1:4 (Rep:Cap). In some cases split Rep Cap plasmids and TIR1 or CMV-Tet were used in a ratio of 1:3:1 (Rep:Cap:TIR1 or CMV-Tet). 1.5 mM SAHA was added after the addition of DNA-PEI complexes. In some cases next day Shield1 or TMP or Auxin and/or Doxycycline was added. For Doxycycline treated samples another treatment of Dox was performed 24 hr later than first treatment. Cells harvested at 4,8,24 hr post-treatment and 44 hr or 68 hr or 72 hr post-transfection; centrifuged and washed with cold PBS. These cell pellets were kept at −80 freezer. 1 mL of cells harvested 44 hr or 68 hr or 72 hr post-transfection for qPCR.
Frozen harvested cells were thawed and sonicated. 300 μL sonicated cells were treated with Benzonase for 1 hour at 37° C. incubator on a rotator/shaker. Then DNaseI treatment was performed for 15 minutes. Reaction was stopped with stop reagent (0.2% SDS/5 mM EDTA/0.2M NaCl), heated at 95° C. for 10 minutes and centrifuged. […]

[8] = test system: C-terminal Auxin Inducible Degron containing Rep; assay: AAV titer (qPCR) with Auxin Inducible Degron tagged Rep; type: cell-based; conditions: auxin and TIR1 all present (Sample 4), FIG. 14B
Description: as §1, §2

[9] = Rep constructs with C-terminal tagged degron, FIG. 15

T1 sequence (P62942 other isoform, or with tags, fused parts or gaps F37V): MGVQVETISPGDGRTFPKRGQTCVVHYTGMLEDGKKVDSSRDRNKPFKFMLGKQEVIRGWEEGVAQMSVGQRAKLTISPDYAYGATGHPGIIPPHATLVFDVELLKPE

C[C@H]1c2cccc(O)c2C(=O)C2=C(O)[C@]3(O)C(=O)C(C(N)=O)=C(O)[C@@H](N(C)C)[C@@H]3[C@@H](O)[C@@H]21 [Doxycycline, doxycycline]
increase of AAV production from the basal levels ([1]; Doxycycline induction, FIG. 16B): ~29 times

CC[C@H](C(=O)N1CCCC[C@H]1C(=O)O[C@H](CCc1ccc(OC)c(OC)c1)c1cccc(OCCN2CCOCC2)c1)c1cc(OC)c(OC)c(OC)c1 [Shield1]
rAAV production ([2]; Rep with C-terminally linked degron in the presence of both Cap and Shield1, FIG. 6): significantly increased | rAAV production and transduction of the target cells ([2]; Shield1 addition, Rep-only plasmid C-terminal degron, HEK293, FIG. 4): rescued | transduction efficiency ([2]; of the wt Rep/Cap plasmid, Rep-only plasmid C-terminal degron with Shield1, FIG. 4): 15-20% | Small and large Rep expression ([3]; C-degron Rep, 4, 8, 24 hour after Shield1 vs untreated, FIG. 12B): higher | large Rep expression ([3]; N-degron Rep, 4, 8, 24 hours after Shield1 vs untreated, FIG. 12A): increases | AAV titer ([4]; N- and C-terminal degron constructs vs untreated controls, FIG. 12C): increases AAV titer | AAV production at different doses [4, 9]: more effective at 500 nM concentration | small Rep expression ([5]; Sample 1 vs Sample 2, FIG. 16A): upregulate | large Rep expression ([5]; Sample 3 vs Sample 4 (with doxycycline), FIG. 16A): upregulate | Large and small Rep expression ([5]; Samples 2, 4, 6, 8 vs 1, 3, 5, 7, FIG. 17A): increased | large Rep expression ([5]; Shield1 added on top of doxycycline, Samples 4 and 8, FIG. 18B): increased further | AAV titer ([1]; codon-modified Rep and small Rep under TRE3G and degron control, treated with Shield1 and Dox together, FIG. 20B): higher

COc1cc(Cc2cnc(N)nc2N)cc(OC)c1OC [TMP, Trimethoprim]
Small and large Rep expression ([6]; C-ecDegron Rep, 5 μM TMP, FIG. 13B): more | Small and large Rep expression ([6]; C-terminal tagged ecDHFR degron, Samples 7 and 8, FIG. 14A): more | large Rep expression ([6]; N-ecDegron Rep, 5 μM TMP, 24 hour time point, FIG. 13A): higher | AAV titer ([7]; C-terminal ecDHFR degron constructs, FIG. 13C): increases | AAV production ([7]; ecDHFR degron tagged Reps, Sample 8 vs Sample 7 (undetectable without TMP), FIG. 14B): can produce AAV

O=C(O)Cc1c[nH]c2ccccc12 [auxin]
AAV production [8]: undetectable

CC[C@H](C(=O)N1CCCC[C@H]1C(=O)O[C@H](CCc1ccc(OC)c(OC)c1)c1ccccc1OCC(=O)NCCCCCCOc1cccc2c1C(=O)N(C1CCC(=O)NC1=O)C2=O)c1cc(OC)c(OC)c(OC)c1 (some centres unmarked) [dTag13]
basal level of the AAV production [4, 9]: did not decrease
